Common to all, as to assay: relative viability (nuclei count vs DMSO), 5 days (fraction); higher = more cells survive
Compound in the assay “NVP-TAE684 + Alpelisib”: COc1cc(N2CCC(N3CCN(C)CC3)CC2)ccc1Nc1ncc(Cl)c(Nc2ccccc2S(=O)(=O)C(C)C)n1 [NVP-TAE684] + Cc1nc(NC(=O)N2CCC[C@H]2C(N)=O)sc1-c1ccnc(C(C)(C)C(F)(F)F)c1 [Alpelisib] (partner 2 µM)
An outline of the steps: (§1)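 Relative viability was taken as the ratio of nuclei in treated wells to nuclei in vehicle wells. Lung cancer cell lines in 1536-well plates received compounds by pin tool one day after seeding, either one drug alone or a fixed anchor-drug dose plus five library-drug doses (not always all listed) in √10 steps. Nuclei were counted on 4× images after 5 days of treatment, and values are medians of duplicate plates.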

Compound in assay [1]: C1=CC=C2C(=C1)N=C(S2)C(C#N)C3=NC(=NC=C3)NCCC4=CN=CC=C4 + COc1cccc2cc(-c3nc([C@H]4CC[C@H](C(=O)O)CC4)n4ncnc(N)c34)[nH]c12 [OSI-027] (partner 0.5 µM)
An outline of the steps:
as §1

Compound in assay [2]: C1=CC=C2C(=C1)N=C(S2)C(C#N)C3=NC(=NC=C3)NCCC4=CN=CC=C4 + CC(C)C[C@H](NC(=O)[C@H](Cc1ccccc1)NC(=O)c1cnccn1)B(O)O [Bortezomib] (partner 0.002 µM)
An outline of the steps: as §1

Compound in assay [3]: C1=CC=C2C(=C1)N=C(S2)C(C#N)C3=NC(=NC=C3)NCCC4=CN=CC=C4 + Cc1cc(Nc2cc(N3CCN(C)CC3)nc(Sc3ccc(NC(=O)C4CC4)cc3)n2)n[nH]1 [Tozasertib] (partner 0.1 µM)
The essentials:
as §1

As to UMC-11, the relative viability in the assay with NVP-TAE684 + Alpelisib (first compound 0.2 µM) came out at 0.961; in the assay with NVP-TAE684 + Alpelisib (first compound 0.6325 µM) it was 0.915; in the assay with NVP-TAE684 + Alpelisib (first compound 2 µM), 0.213; in assay [1] (first compound 0.005 µM) it was 0.408; in assay [1] (first compound 0.01581 µM), 0.493; in assay [1] (first compound 0.05 µM), 0.445. The relative viability in assay [1] (first compound 0.1581 µM) amounted to 0.468; in assay [1] (first compound 0.5 µM), 0.35; in assay [2] (first compound 0.005 µM), 0.458; in assay [2] (first compound 0.01581 µM), 0.695; in assay [2] (first compound 0.05 µM), 0.901; in assay [2] (first compound 0.1581 µM) it was 0.875. Besides, the relative viability amounted to 0.488 in assay [2] (first compound 0.5 µM); 0.212 in assay [3] (first compound 0.005 µM); 0.214 in assay [3] (first compound 0.01581 µM); 0.177 in assay [3] (first compound 0.05 µM); 0.249 in assay [3] (first compound 0.1581 µM); 0.206 in assay [3] (first compound 0.5 µM).

(Values after the supplement of paper PMC10307832.)
